Among the test systems are A549 NSCLC; HOP-92 NSCLC; T-47D breast; PC-3 prostate; A498 renal; HT29 colon; NCI-H522 lung; MDA-MB-435; COLO 205 colon; RPMI-8226 leukemia.
Assay in all cases: growth of human tumour cells (NCI), 48 h

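Cells were grown in 96-well plates and exposed to each compound for 48 hours at five concentrations; endpoints were interpolated linearly between bracketing concentrations, or set to the highest concentration if not reached. The concentration for 50% growth inhibition is given as GI50. TGI marks complete inhibition of growth.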

GI50 and TGI data for eight compounds are collected here from PubChem BioAssay (NCI).

In the case of `CC1=C(C)C(=O)c2c(c(C(=O)c3ccccc3)c3nc4ccccc4n3c2C)C1=O`, the GI50 in the assay on A549 NSCLC is more than 100 µM; with HOP-92 NSCLC, 26 µM; in the assay on T-47D breast, more than 100 µM; with PC-3 prostate, more than 100 µM; in the assay with A498 renal it was more than 100 µM; in the assay with HT29 colon, more than 100 µM. Further, the GI50 in the assay on NCI-H522 lung, in the assay on MDA-MB-435, with COLO 205 colon and with RPMI-8226 leukemia was more than 100 µM each time. The TGI with A549 NSCLC was more than 100 µM; in the assay on HOP-92 NSCLC it was 87.3 µM; in the assay on T-47D breast, more than 100 µM; in the assay with PC-3 prostate it was more than 100 µM; with A498 renal, more than 100 µM; with HT29 colon it was more than 100 µM. Also, the TGI in the assay with NCI-H522 lung, in the assay on MDA-MB-435, in the assay on COLO 205 colon and with RPMI-8226 leukemia was more than 100 µM each time.

On to `COc1ccc(C(=O)Cn2c(C(=O)c3ccc(Cl)cc3)nc3ccccc32)cc1`, for which the GI50 with A549 NSCLC was 29.8 µM; in the assay on HOP-92 NSCLC, more than 100 µM; in the assay on T-47D breast it was more than 38.9 µM; in the assay with PC-3 prostate, 21.2 µM; in the assay with A498 renal it was 14.3 µM; with HT29 colon it was 7.58 µM. For the same compound, the GI50 in the assay on NCI-H522 lung was 10.3 µM; in the assay with MDA-MB-435, 2.23 µM; in the assay with COLO 205 colon, 37.5 µM; in the assay on RPMI-8226 leukemia, 1.75 µM. Further, the TGI in the assay with A549 NSCLC, with HOP-92 NSCLC, with T-47D breast, in the assay on PC-3 prostate, with A498 renal and in the assay with HT29 colon was more than 100 µM each time. For the same compound, the TGI was more than 100 µM with NCI-H522 lung, more than 23.2 µM in the assay with MDA-MB-435, more than 100 µM in the assay with COLO 205 colon and more than 77.8 µM with RPMI-8226 leukemia.

As for `CCN1C(=O)C/C(=C\C(C)=O)Nc2ccccc21`, the TGI with A549 NSCLC, in the assay with HOP-92 NSCLC, in the assay on T-47D breast, in the assay with PC-3 prostate, with A498 renal and in the assay with HT29 colon was more than 100 µM in each case. In addition, the TGI with NCI-H522 lung, in the assay on MDA-MB-435, in the assay on COLO 205 colon and in the assay with RPMI-8226 leukemia was more than 100 µM in each case. Besides, the GI50 with T-47D breast, in the assay with PC-3 prostate, with A498 renal, in the assay on MDA-MB-435 and with RPMI-8226 leukemia was more than 100 µM each time.

Take `COc1cccc(-c2nn(-c3ccccc3)cc2-c2ccnc(NCCNS(=O)(=O)c3ccc(Cl)cc3)c2)c1`: the GI50 in the assay with A549 NSCLC is 5.86 µM; with HOP-92 NSCLC it was 2.46 µM; in the assay with T-47D breast, 2.52 µM; in the assay with PC-3 prostate it was 2.44 µM; in the assay on A498 renal it was 3.4 µM; in the assay on HT29 colon, 3.37 µM. For the same compound, the GI50 is 2.47 µM with NCI-H522 lung, 3.81 µM in the assay on MDA-MB-435, 3.33 µM with COLO 205 colon and 2.74 µM with RPMI-8226 leukemia. The TGI with A549 NSCLC was more than 100 µM; in the assay on HOP-92 NSCLC, 9.48 µM; with T-47D breast, 8.66 µM; in the assay with PC-3 prostate, more than 100 µM; with A498 renal, more than 100 µM; in the assay on HT29 colon, 11.3 µM. Besides, the TGI in the assay on NCI-H522 lung was 9.76 µM; in the assay on MDA-MB-435, more than 100 µM; with COLO 205 colon, 14.7 µM; in the assay with RPMI-8226 leukemia, 13.3 µM.

With `C[Si](C)(C)C#CCO[Si](C)(C)C`, the TGI in the assay with A549 NSCLC was more than 100 µM; in the assay with HOP-92 NSCLC, 44.3 µM; with T-47D breast it was more than 100 µM; in the assay with PC-3 prostate, more than 100 µM; with A498 renal it was more than 100 µM; with HT29 colon it was more than 100 µM. The TGI in the assay with NCI-H522 lung was 29.9 µM; in the assay with MDA-MB-435 it was more than 100 µM; with COLO 205 colon it was more than 100 µM; in the assay with RPMI-8226 leukemia, more than 79.8 µM.

Take `COc1ccc(C(=O)Cn2c(C(=O)c3ccc(OC)cc3)nc3ccccc32)cc1`: the GI50 with A549 NSCLC is 5.47 µM; in the assay with HOP-92 NSCLC, more than 100 µM; in the assay on T-47D breast, 3.39 µM; in the assay with PC-3 prostate it was 2.43 µM; with A498 renal, 1.64 µM; with HT29 colon it was 0.576 µM. In addition, the GI50 in the assay on NCI-H522 lung is 2.19 µM; in the assay with MDA-MB-435, 0.284 µM; with COLO 205 colon, 2.38 µM; with RPMI-8226 leukemia it was 1.52 µM. For the same compound, the TGI in the assay with A549 NSCLC, in the assay with HOP-92 NSCLC, in the assay on T-47D breast, with PC-3 prostate, with A498 renal and in the assay with HT29 colon was more than 100 µM throughout. For the same compound, the TGI in the assay with NCI-H522 lung was more than 100 µM; in the assay on MDA-MB-435, more than 34.4 µM; in the assay on COLO 205 colon, 8.21 µM; with RPMI-8226 leukemia it was 8.28 µM.

For the compound `Nc1c(C(=O)Nc2ccccc2)sc2nc3c(cc12)CCCCCC3`, the GI50 in the assay on A549 NSCLC is 0.467 µM; with HOP-92 NSCLC it was 0.523 µM; in the assay with T-47D breast, 0.892 µM; in the assay with PC-3 prostate, 0.44 µM; in the assay on A498 renal, 0.248 µM; with HT29 colon it was 0.303 µM. For the same compound, the GI50 in the assay on NCI-H522 lung is 0.271 µM; with MDA-MB-435, 0.068 µM; in the assay on COLO 205 colon it was 0.307 µM; with RPMI-8226 leukemia it was 0.379 µM. The TGI in the assay with A549 NSCLC was 20.1 µM; with HOP-92 NSCLC it was 5.1 µM; in the assay with T-47D breast it was 20.5 µM; with PC-3 prostate, more than 100 µM; with A498 renal it was 1.31 µM; in the assay with HT29 colon it was 1.43 µM. Also, the TGI is 1.29 µM with NCI-H522 lung, 0.266 µM in the assay with MDA-MB-435, 1.48 µM in the assay on COLO 205 colon and 15.7 µM in the assay on RPMI-8226 leukemia.

As to `CCn1c(=O)c(-c2ccn[nH]2)cc2c(C)nc(N)nc21`, the GI50 in the assay on A549 NSCLC was 1.99 µM; in the assay with HOP-92 NSCLC, 0.213 µM; with T-47D breast, 0.173 µM; in the assay on PC-3 prostate it was 0.397 µM; in the assay with A498 renal it was 0.209 µM; with HT29 colon it was 1.53 µM. The GI50 with NCI-H522 lung is 1.5 µM; in the assay on MDA-MB-435 it was 1.69 µM; with COLO 205 colon, 1.78 µM; with RPMI-8226 leukemia it was 0.821 µM. For the same compound, the TGI in the assay with A549 NSCLC was 7.41 µM; in the assay with HOP-92 NSCLC, 1.56 µM; in the assay with T-47D breast it was 0.748 µM; with PC-3 prostate, more than 100 µM; in the assay with A498 renal, 0.726 µM; in the assay with HT29 colon it was more than 100 µM. The TGI with NCI-H522 lung was more than 100 µM; in the assay with MDA-MB-435, more than 100 µM; in the assay on COLO 205 colon, 10.4 µM; with RPMI-8226 leukemia, 12.3 µM.
